Reference: patent US20120259126A1, “[…]” (UNIVERSITAT HEIDELBERG, priority 2009, published 2012)

Settings: 24° C.

Compound: C1CCOC1.C1CCOC1.C1CCOC1.C1CCOC1.CC(C)(C)c1cc2c(c(C(C)(C)C)c1)O[B-]1(Oc3c-2cc(C(C)(C)C)cc3C(C)(C)C)Oc2c(cc(C(C)(C)C)cc2C(C)(C)C)-c2cc(C(C)(C)C)cc(C(C)(C)C)c2O1.[Li+] [lithium tetrakis(tetrahydrofuran)bis(3,3′,5,5′-tetra-tert-butyl-2,2′-diphenolato)borate(III)]
- solubility in pentane (maximum concentrations): at least 21 g/L
